Measured values published in patent US20190022189A1, “USE OF SERELAXIN TO REDUCE GDF-15” (NOVARTIS AG, priority 2014, published 2019).
Marks after values point to notes of the source that are not given here.

What was measured:
[1] = system: GDF-15; assay: Serum GDF-15 by electrochemiluminescent immunoassay in placebo-controlled acute heart failure trial (Example 1); type: in vivo, human
Procedure: (§1) In an international, double-blind, placebo-controlled trial (Teerlink et al., Lancet 381:29-39 (2013)) the entire contents of which are herein incorporated by reference, patients displaying pulmonary congestion on chest radiograph and admitted to the hospital for acute heart failure were randomized to a 48 hour intravenous infusion of placebo or 30 μg/kg/d serelaxin. Time elapsed from arrival to the hospital to the intravenous administration of serelaxin was less than nine hours. […] The 48 hour infusion of serelaxin reduced cardiovascular death at 180 days ([…]). No previous intervention outcome trial in patients with acute heart failure has shown a beneficial effect on post discharge mortality.
Blood samples for biomarker analysis were collected in serum separating tubes prior to initiation of serelaxin or placebo (baseline) and at days 2, 5, 14, and 60. ‘The serum samples were centrifuged within 30 to 60 minutes of collection following visualization of a clot, frozen at −20° C. for up to four weeks, then sent on dry ice to a central laboratory for storage at −80° C. until the analysis was performed. GDF-15 was measured in the samples using a pre-commercial electrochemiluminescent immunoassay provided by Roche Diagnostics GmbH (Mannheim, Germany). All samples from the same patient were analyzed at the same time at a certified central laboratory by personnel blinded to patient treatment and study data. The reporting range for GDF-15 was 400 to 20,000 ng/L.
Multivariable linear regression models were developed for the changes in GDF-15 levels from baseline to days 2 and 14 using baseline patient clinical characteristics and routine laboratory measures; backwards elimination in the placebo, group was used, with p<0.10 as the criterion for retention in the model. Missing predictors were imputed with the treatment-group-specific median for continuous variables and mode for categorical variables. GDF-15 values were log-transformed. The linearity of associations was assessed using restricted cubic splines, and if significant non-linearity was found (at p<0.10), a dichotomized, trichotoniized, linear spline or quadratic or cubic polynomial transformation was chosen based on the univariable Akaike's Information Criterion. Adjusted R^2 values from 5-fold cross-validations are presented. The serelaxin effect on biomarker changes was then estimated in all patients with multivariable adjustment for covariates prognostic of these changes in the placebo group.

[2] = system: patients with acute heart failure; assay: Clinical outcomes in the acute heart failure trial (dyspnea, hospital stay, cardiovascular death); type: in vivo, human
Procedure: as §1
Changes in patient-reported dyspnea were assessed through day 5 as the area under the change from baseline in visual analog scale score through day 5, where the worst possible score was assigned following death or worsening heart failure (dyspnea VAS AUC). Reasons for rehospitalization through day 60 and causes of deaths through day 180 were adjudicated centrally by a blinded endpoint committee.

[3] = system: patients with acute heart failure; assay: Cox regression models of 180-day cardiovascular mortality in the acute heart failure trial; type: in vivo, human
Excerpt: Multivariable linear regression models were developed for the changes in biomarker levels from baseline to day 2 and 14 using baseline patient clinical characteristics and routine laboratory measures; backwards elimination in the placebo group was used, with p<0.10 as the criterion for retention in the model. Missing predictors were imputed with the treatment-group-specific median for continuous variables and mode for categorical variables. GDF-15 values were log-transformed. To allow consistency and comparability of models with and without biomarkers, missing follow-up biomarker levels were imputed using linear interpolation or as last observation carried forward if no following measure was available. The linearity of associations was assessed using restricted cubic splines, and if significant non-linearity was found (at p<0.10), a dichotomized, trichotomized, linear spline or quadratic or cubic polynomial transformation was chosen based on the univariable Akaike's Information Criterion. The serelaxin effect on GDF-15 changes was then estimated with multivariable adjustment for covariates prognostic of these changes in the placebo group.
Associations of baseline biomarker values and changes with clinical outcomes were estimated with linear regression for dyspnea VAS AUC, and with Cox regression models for 60-day rehospitalization for heart failure or renal failure or cardiovascular death and for 180-day cardiovascular mortality. Linearity of associations of GDF-15 values with outcomes was assessed as above. Mean changes in biomarkers over time were estimated from repeated measures analysis of variance models, with no imputation for missing values.

[4] = system: GDF-15; assay: GDF-15 in the pulmonary hemodynamic study, 20 hour infusion (Example 2); type: in vivo, human
Procedure: (§2) In a separate study, the pulmonary hemodynamic effects (e.g., the pulomonary load) of serelaxin were evaluated in patients hospitalized with acute heart failure (Ponikowski et al., Eur Heart J 35:431-441 (2014)). Patients were randomized 1:1 to serelaxin or placebo, initially stabilized, then infused with serelaxin at a dose of 30 ug/kg/d for 20 hours. Pulmonary congestion at the time of presentation was a required inclusion criterion. Time elapsed from hospital admission to the beginning of intravenous infusion of serelaxin was less than 29 hours. Serelaxin exerted rapid hemodynamic effects; changes were detected within the first 30 minutes of infusion and were sustained throughout the treatment period. Serelaxin reduced the time weighted average pulmonary capillary wedge pressure from baseline in the first eight hours of treatment (p=0.0001) as well as during hours 8-20 (p=0.03).
GDF-15 was measured in blood samples collected in serum separating tubes. The serum samples were centrifuged within two hours and plasma was stored at −20° C. or lower, followed by storage at −80° C. until the analysis was performed. GDF-15 was measured using a pre-commercial electrochemiluminescent immunoassay provided by Roche Diagnostics GmbH (Mannheim, Germany). All samples from the same patient were analyzed at the same time at a certified central laboratory by personnel blinded to patient treatment and study data.

[5] = system: patients hospitalized with acute heart failure; assay: Pulmonary hemodynamic effects in patients hospitalized with acute heart failure (Example 2); type: in vivo, human
Procedure: as §2
(§3) Pulmonary capillary wedge pressure (PCWP), mean pulmonary artery pressure (PAP), and pulmonary vascular resistance (PVR) were measured as well as NTproBNP and GDF-15 An analysis was performed of the association of GDF-15 and NTproBNP with these hemodynamic indices.

[6] = system: NTproBNP; assay: NTproBNP in the pulmonary hemodynamic study (Example 2); type: in vivo, human; settings: 20 hour infusion; p=0.037
Procedure: as §2, §3

[7] = system: patients with acute heart failure; settings: Phase 3 trial in acute heart failure (Teerlink et al.); cited from earlier work
[8] = system: GDF-15; settings: patients with symptomatic heart failure (Anand et al.); cited from earlier work
[9] = system: B-type natriuretic peptide; settings: patients with symptomatic heart failure (Anand et al.); cited from earlier work
[10] = 30 ug/kg/d infusion for 20 hours

## Serelaxin
[1]; Baseline (before start of infusion)
  GeoMean GDF-15: 4380.3 ng/L
[1]; Baseline (before start of infusion), serelaxin group n = 530
  Median GDF-15: 4115.5 ng/L
[1]; Day 2
  GDF-15 GeoMean Change vs Baseline: −21.6%*
[1]; Day 2, 48 hour iv infusion 30 μg/kg/d
  GeoMean GDF-15: 3395.6 ng/L
[1]; Day 2, 48 hour iv infusion 30 μg/kg/d, n = 530
  Median GDF-15: 3341.0 ng/L
[1]; Day 5
  GDF-15 GeoMean Change vs Baseline: −14.95* %
[1]; Day 5, 48 hour iv infusion 30 μg/kg/d
  GeoMean GDF-15: 3690.3 ng/L
[1]; Day 5, 48 hour iv infusion 30 μg/kg/d, n = 530
  Median GDF-15: 3584.5 ng/L
[1]; Day 14
  GDF-15 GeoMean Change vs Baseline: −20.2%*
[1]; Day 14, 48 hour iv infusion 30 μg/kg/d
  GeoMean GDF-15: 3397.0 ng/L
[1]; Day 14, 48 hour iv infusion 30 μg/kg/d, n = 530
  Median GDF-15: 3296.0 ng/L
[1]; Day 60
  GDF-15 GeoMean Change vs Baseline: −26.4%*
[1]; Day 60, 48 hour iv infusion 30 μg/kg/d
  GeoMean GDF-15: 3114.0 ng/L
[1]; Day 60, 48 hour iv infusion 30 μg/kg/d, n = 530
  Median GDF-15: 2981.5 ng/L
[1]; day 14
  GDF-15 levels versus placebo, both in addition to standard of care: approached statistical significance
[1]; day 60
  GDF-15 level: trend towards lower
[1]; days 2 and 5
  GDF-15 levels versus placebo, both in addition to standard of care: significantly lower
[1]; to day 14
  decrease in GDF-15: faster decrease
[2]; 48 hour infusion, p=0.28
  cardiovascular death at 180 days: reduced
[2]; 48 hour iv infusion 30 μg/kg/d
  patient-reported general well-being: improvements
[2]; 48 hour iv infusion 30 μg/kg/d vs placebo, p=0.007
  primary dyspnea efficacy endpoint, Visual Acuity Scale area under the curve: significantly improved
[2]; vs placebo, p=0.03
  reduction of time in the intensive care or coronary care unit: 0.4 days
[2]; vs placebo, p=0.04
  reduction of average length of hospital stay: 0.9 days
[3]; adjusted for baseline GDF-15 and change in GDF-15 from baseline to Day 2
  HR, CV death through Day 180: 0.832
[3]; adjusted for baseline GDF-15 and change in GDF-15 from baseline to Day 14, N = 1037
  HR, CV death through Day 180: 0.847
[3]; adjusted for change in GDF-15 from baseline to Day 2 and multivariable predictors of outcome
  HR, CV death through Day 180: 0.763
[3]; adjusted for change in GDF-15 from baseline to Day 14 and multivariable predictors of outcome, N = 1037
  HR, CV death through Day 180: 0.753
[3]; multivariable adjustment for baseline covariates, without GDF-15 change, 95% CI 0.430-1.028
  hazard ratio for 180-day CV mortality: 0.665
[3]; unadjusted for other baseline covariates, 95% CI 0.403-0.950
  hazard ratio for 180-day CV mortality: 0.619
[4]; [10]
  GDF-15 levels versus placebo: significantly decreased
  reduction of GDF-15 geo-mean from baseline: 16%
[4]; 30 ug/kg/d infusion for 20 hours, p=0.0204
  GDF-15 treatment difference in favor of serelaxin versus placebo: 18%
[4]; baseline, serelaxin group
  baseline median GDF-15: 3260 ng/L
[5]; 30 ug/kg/d infusion
  pulmonary vascular resistance: concomitant decrease
  systemic vascular resistance: concomitant decrease
[5]; first eight hours of treatment, p=0.0001
  time weighted average pulmonary capillary wedge pressure from baseline: reduced
[5]; from start of infusion, sustained throughout the treatment period
  time until hemodynamic changes were detected: ≤ 30 min
[5]; hours 8-20, p=0.03
  time weighted average pulmonary capillary wedge pressure from baseline: reduced
[5]; over the 20 hour infusion period, all p values <0.005
  improvements in PCWP, PAP and PVR compared to placebo: favored serelaxin
[5]; p=0001 at four hours
  systolic and diastolic pulmonary arterial pressure: significantly lowered
[6]
  NTproBNP: significantly reduced
[7]
  dyspnea: rapid relief
  mortality at six months: reduced

## CCCCC(=O)N(Cc1ccc(-c2ccccc2-c2nnn[nH]2)cc1)[C@H](C(=O)O)C(C)C [Valsartan]
[8]
  effect on GDF-15: no effect
[9]
  heart failure biomarker B-type natriuretic peptide: lower
